Source: patent US20200268690A1, “TOPICAL COMPOSITIONS” (Atossa Therapeutics, Inc., priority 2017, published 2020)
Read-outs that look alike come from different tables or passages of the source.

Assays:
[1] = Solubility of endoxifen free base in polar organic solvents (HPLC-UV); assay type: physicochemical; details: for Z/E Ratio: room temperature
Protocol: (Z)-endoxifen free base was synthesized as described above in Example 1. (Z)-endoxifen was solubilized in various solvents as provided in Table 1, and tested for physical and chemical stability in solution. The solutions were prepared in ˜1 ml batches typically for solubility and stability testing. The mixture was stirred overnight on a rotisserie at room temperature. The next, day, the suspension was filtered using a syringe filter (0.2 um pore size GHP membrane). The filtrated solution was then analyzed for the concentration of (Z)-endoxifen and (E)-endoxifen as using a validated HPLC-UV method as described below.
(§1) HPLC-UV. Briefly, (E)- and (Z)-endoxifen were analyzed by High Performance Liquid Chromatography, HPLC (instrument: Agilent 1100) using a UV detector (Agilent). Chromatographic resolution was obtained using a Luna Phenyl Hexyl Column ([…]×150 mm) at a column temperature of 40° C. Samples were injected in an injection volume of 10 ul and run at a flow rate of 1.0 ml/min. The mobile phase system used consisted of: A) water with 10 mM ammonium formate (HCOONH4) with 0.03% formic acid and B) Methanol with 10 mM ammonium formate (HCOONH4).
UV detection of (E)-endoxifen and (Z)-endoxifen isomers was performed at 243 nm with a run time of 30 minutes. Retention times for (E)-endoxifen and (Z)-endoxifen were 15.14 m and 16.25 m respectively. […] The solubility of (Z)-endoxifen ranged from about 1 mg/g of solution to over 30 mg/g of solution.

[2] = Accelerated stability of (Z)-endoxifen free base in polar organic solvents in the absence and presence of human cadaver skin; assay type: physicochemical; details: for % Potency: relative to initiation of study; for potency and stability in presence of skin compared with absence of skin: in the solvents of Table 3, 45° C., after 2 days
Protocol: as §1
The stability studies of endoxifen free base in various pure polar organic solvents/MPEs were performed as described below. Accelerated stability studies of (Z)-endoxifen free base in solvents/MPEs were performed over a course of 2 days at 45° C. in both the presence and the absence of human cadaver skin to assess the degree to which the (Z)-endoxifen conversion to (E)-endoxifen by isomerization and or chemical degradation of the endoxifen is accelerated upon contact with skin and skin components. (Z)-Endoxifen solutions at […] of saturation concentrations were prepared in 1 ml batches in solvents as listed below in the Table 3. The potencies of (Z)-endoxifen and (E)-endoxifen were determined by HPLC-UV analysis as described above. Potency results are shown compared with potencies measured when the sample were stored at the initiation of stability study.

patients = details: oral tamoxifen; cited from earlier work
[3] = cited from earlier work
[4] = in Diethyl Sebacate, 45° C. + skin, 2 days
[5] = in Diethyl Sebacate, 45° C., 2 days
[6] = in Diethylene glycol monoethyl ether, 45° C. + skin, 2 days
[7] = in Diethylene glycol monoethyl ether, 45° C., 2 days
[8] = in Diisopropyl Adipate, 45° C. + skin, 2 days
[9] = in Diisopropyl Adipate, 45° C., 2 days
[10] = in Dimethyl Isosorbide, 45° C. + skin, 2 days
[11] = in Dimethyl Isosorbide, 45° C., 2 days
[12] = in Dimethyl Sulfoxide, 45° C. + skin, 2 days
[13] = in Dimethyl Sulfoxide, 45° C., 2 days
[14] = in Dipropylene Glycol, 45° C. + skin, 2 days
[15] = in Dipropylene Glycol, 45° C., 2 days
[16] = in Isopropanol, 45° C. + skin, 2 days
[17] = in Isopropyl Myristate, 45° C. + skin, 2 days
[18] = in Isopropyl Myristate, 45° C., 2 days
[19] = in PEG 300, 45° C. + skin, 2 days

Row | % Potency [2, 4] [%] | % Potency [2, 5] [%] | % Potency [2, 6] [%] | % Potency [2, 7] [%] | % Potency [2, 8] [%] | % Potency [2, 9] [%] | % Potency [2, 10] [%] | % Potency [2, 11] [%] | % Potency [2, 12] [%] | % Potency [2, 13] [%] | % Potency [2, 14] [%] | % Potency [2, 15] [%] | % Potency [2, 16] [%] | % Potency ([2]; in Isopropanol, 45° C., 2 days) [%] | % Potency [2, 17] [%] | % Potency [2, 18] [%] | % Potency [2, 19] [%] | % Potency ([2]; in PEG 300, 45° C., 2 days) [%] | potency and stability in presence of skin compared with absence of skin [2] | Structure (SMILES) | also measured
1 |  |  |  |  |  |  |  |  |  |  |  |  |  |  |  |  |  |  |  | CC/C(=C(\c1ccc(O)cc1)c1ccc(OCCNC)cc1)c1ccccc1 [Endoxifen free base, (E/Z)-4-[1-[4-[2-(Methylamino)ethoxy]phenyl]-2-phenyl-1-buten-1-yl]-phenol] | solubility (in words) ([1]; in polar organic solvents/MPEs such as DMSO, ethanol, diethylene monoethyl ether, and oleic acid): significantly soluble; Z/E Ratio ([1]; saturated solution in Capric Trigylceride (Solvent No. 15)): 0.63; Z/E Ratio ([1]; saturated solution in Diethyl Sebacate (Solvent No. 2)): 1.7; Z/E Ratio ([1]; saturated solution in Diethylene glycol monoethyl ether (Solvent No. 10)): 1.89; Z/E Ratio ([1]; saturated solution in Diisopropyl Adipate (Solvent No. 3)): 1.87; Z/E Ratio ([1]; saturated solution in Dimethyl Isosorbide (Solvent No. 4)): 1.82; Z/E Ratio ([1]; saturated solution in Dimethyl Sulfoxide (Solvent No. 1)): 1.87; Z/E Ratio ([1]; saturated solution in Dipropylene Glycol (Solvent No. 5)): 1.82; Z/E Ratio ([1]; saturated solution in Ethanol (Solvent No. 6)): 1.72; Z/E Ratio ([1]; saturated solution in Isopropanol (Solvent No. 7)): 1.88; Z/E Ratio ([1]; saturated solution in Isopropyl Myristate (Solvent No. 12)): 1.09; Z/E Ratio ([1]; saturated solution in Oleic Acid (Solvent No. 14)): 1.02; Z/E Ratio ([1]; saturated solution in PEG300 (Solvent No. 8)): 1.77; Z/E Ratio ([1]; saturated solution in PEG 400 (Solvent No. 11)): 1.78; Z/E Ratio ([1]; saturated solution in Propylene Glycol (Solvent No. 9)): 1.60; Z/E Ratio ([1]; saturated solution in Soybean Oil (Solvent No. 13)): 0.76; stability (in words) ([2]; dissolved in dimethyl isosorbide and isopropyl myristate, 45° C., 2 days): poor stability
2 |  |  |  |  |  |  |  |  |  |  |  |  |  |  |  |  |  |  |  | CC/C(=C(\c1ccccc1)c1ccc(OCCN(C)C)cc1)c1ccccc1 [tamoxifen, (Z)-2-[4-(1,2-diphenyl-1-butenyl)phenoxy]-N,N-dimethylethanamine] | patients with elevated liver function tests, especially SGOT/AST (patients): about 5%
3 |  |  |  |  |  |  |  |  |  |  |  |  |  |  |  |  |  |  |  | CC/C(=C(\c1ccc(O)cc1)c1ccc(OCCNC)cc1)c1ccccc1.Cl [(Z)-endoxifen HCl] | t90 ([3]; 45° C.): 9 days; (Z)-endoxifen HCl remaining after degradation ([3]; aqueous medium, 45° C., day 15, from 98%): 75%; t90 ([3]; room temperature): 149 days
4 | 99 | 101 | 98 | 100 | 101 | 100 | 16 | 15 | 101 | 101 | 95 | 95 | 106 | 106 | 68 | 67 | 92 | 91 | maintained potency and stability | CC/C(=C(/c1ccc(O)cc1)c1ccc(OCCNC)cc1)c1ccccc1 [(E)-endoxifen free base] | 
5 | 94 | 100 | 98 | 100 | 99 | 99 | 17 | 16 | 101 | 102 | 94 | 93 | 105 | 105 | 63 | 65 | 92 | 91 | maintained potency and stability | CC/C(=C(\c1ccc(O)cc1)c1ccc(OCCNC)cc1)c1ccccc1 [(Z)-endoxifen free base, (Z)-4-(1-(4-(2-(methylamino)ethoxy)phenyl)-2-phenylbut-1-enyl)phenol] | 
